Patent US10125129B2 (priority 2016, dated 2018)
Like-named read-outs stand apart in the source and are kept apart here.

Target: T1, μ opioid receptor (MOR) (Homo sapiens, UniProt P35372)
T1 construct: expressed in transfected cells
Assay: cell-based
Format: cell-based

T1 sequence (P35372 whole entry): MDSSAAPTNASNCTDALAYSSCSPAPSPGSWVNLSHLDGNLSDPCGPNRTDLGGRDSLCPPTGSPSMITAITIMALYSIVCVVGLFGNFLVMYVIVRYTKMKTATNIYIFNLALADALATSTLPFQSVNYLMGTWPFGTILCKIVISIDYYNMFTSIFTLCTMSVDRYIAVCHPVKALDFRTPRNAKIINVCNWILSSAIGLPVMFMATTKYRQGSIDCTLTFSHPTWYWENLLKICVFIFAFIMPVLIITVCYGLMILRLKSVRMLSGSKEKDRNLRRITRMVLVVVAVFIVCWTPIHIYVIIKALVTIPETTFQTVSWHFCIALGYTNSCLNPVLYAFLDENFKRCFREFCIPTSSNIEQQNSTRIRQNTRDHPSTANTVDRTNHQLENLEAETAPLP

Row | Compound | EC50 (Series 1 EC50) [nM] | EC50 (Series 2 EC50) [nM] | also measured
1 | COC(=O)[C@@H]1C[C@H](OC(=O)c2ccccc2[N+](=O)[O-])C(=O)[C@H]2[C@@]1(C)CC[C@H]1C(=O)O[C@H](c3ccoc3)C[C@]21C [Series 1 Entry 2] | 2000 ± 1000 |  | 
2 | COC(=O)[C@@H]1C[C@H](OC(=O)c2cccc([N+](=O)[O-])c2)C(=O)[C@H]2[C@@]1(C)CC[C@H]1C(=O)O[C@H](c3ccoc3)C[C@]21C [Series 1 Entry 3] | 3500 ± 200 |  | 
3 | COC(=O)[C@@H]1C[C@H](OC(=O)c2ccccc2Cl)C(=O)[C@H]2[C@@]1(C)CC[C@H]1C(=O)O[C@H](c3ccoc3)C[C@]21C [Series 1 Entry 5, (2S,4aR,6aR,7R,9S,10aS,10bR)-Methyl 9-((2-chlorobenzoyl)oxy)-2-(furan-3-yl)-6a,10b-dimethyl-4,10-dioxododecahydro-1H-benzo[f]isochromene-7-carboxylate] | 3400 ± 200 |  | 
4 | COC(=O)[C@@H]1C[C@H](OC(=O)c2cccc(Cl)c2)C(=O)[C@H]2[C@@]1(C)CC[C@H]1C(=O)O[C@H](c3ccoc3)C[C@]21C [Series 1 Entry 6, (2S,4aR,6aR,7R,9S,10aS,10bR)-Methyl 9-((3-chlorobenzoyl)oxy)-2-(furan-3-yl)-6a,10b-dimethyl-4,10-dioxododecahydro-1H-benzo[f]isochromene-7-carboxylate] | 2400 ± 100 |  | 
5 | COC(=O)[C@@H]1C[C@H](OC(=O)c2ccc(Cl)cc2)C(=O)[C@H]2[C@@]1(C)CC[C@H]1C(=O)O[C@H](c3ccoc3)C[C@]21C [Series 1 Entry 7, (2S,4aR,6aR,7R,9S,10aS,10bR)-Methyl 9-((4-chlorobenzoyl)oxy)-2-(furan-3-yl)-6a,10b-dimethyl-4,10-dioxododecahydro-1H-benzo[f]isochromene-7-carboxylate] | 700 ± 100 |  | 
6 | COC(=O)[C@@H]1C[C@H](OC(=O)c2ccccc2F)C(=O)[C@H]2[C@@]1(C)CC[C@H]1C(=O)O[C@H](c3ccoc3)C[C@]21C [Series 1 Entry 8, (2S,4aR,6aR,7R,9S,10aS,10bR)-Methyl 9-((2-fluorobenzoyl)oxy)-2-(furan-3-yl)-6a,10b-dimethyl-4,10-dioxododecahydro-1H-benzo[f]isochromene-7-carboxylate] | 400 ± 100 |  | 
7 | COC(=O)[C@@H]1C[C@H](OC(=O)c2cccc(F)c2)C(=O)[C@H]2[C@@]1(C)CC[C@H]1C(=O)O[C@H](c3ccoc3)C[C@]21C [Series 1 Entry 9, (2S,4aR,6aR,7R,9S,10aS,10bR)-Methyl 9-((3-fluorobenzoyl)oxy)-2-(furan-3-yl)-6a,10b-dimethyl-4,10-dioxododecahydro-1H-benzo[f]isochromene-7-carboxylate] | 460 ± 80 |  | 
8 | COC(=O)[C@@H]1C[C@H](OC(=O)c2ccc(F)cc2)C(=O)[C@H]2[C@@]1(C)CC[C@H]1C(=O)O[C@H](c3ccoc3)C[C@]21C [Series 1 Entry 10, (2S,4aR,6aR,7R,9S,10aS,10bR)-Methyl 9-((4-fluorobenzoyl)oxy)-2-(furan-3-yl)-6a,10b-dimethyl-4,10-dioxododecahydro-1H-benzo[f]isochromene-7-carboxylate] | 800 ± 200 |  | 
9 | COC(=O)[C@@H]1C[C@H](OC(=O)c2ccccc2C)C(=O)[C@H]2[C@@]1(C)CC[C@H]1C(=O)O[C@H](c3ccoc3)C[C@]21C [Series 1 Entry 11, (2S,4aR,6aR,7R,9S,10aS,10bR)-Methyl 2-(furan-3-yl)-6a,10b-dimethyl-9-((2-methylbenzoyl)oxy)-4,10-dioxododecahydro-1H-benzo[f]isochromene-7-carboxylate] | 1600 ± 400 |  | 
10 | COC(=O)[C@@H]1C[C@H](OC(=O)c2cccc(C)c2)C(=O)[C@H]2[C@@]1(C)CC[C@H]1C(=O)O[C@H](c3ccoc3)C[C@]21C [Series 1 Entry 12, (2S,4aR,6aR,7R,9S,10aS,10bR)-Methyl 2-(furan-3-yl)-6a,10b-dimethyl-9-((3-methylbenzoyl)oxy)-4,10-dioxododecahydro-1H-benzo[f]isochromene-7-carboxylate] | 1800 ± 300 |  | 
11 | COC(=O)[C@@H]1C[C@H](OC(=O)c2ccc(C)cc2)C(=O)[C@H]2[C@@]1(C)CC[C@H]1C(=O)O[C@H](c3ccoc3)C[C@]21C [Series 1 Entry 13, (2S,4aR,6aR,7R,9S,10aS,10bR)-Methyl 2-(furan-3-yl)-6a,10b-dimethyl-9-((4-methylbenzoyl)oxy)-4,10-dioxododecahydro-1H-benzo[f]isochromene-7-carboxylate] | 430 ± 10 |  | 
12 | COC(=O)[C@@H]1C[C@H](OC(=O)c2ccccc2OC)C(=O)[C@H]2[C@@]1(C)CC[C@H]1C(=O)O[C@H](c3ccoc3)C[C@]21C [Series 1 Entry 14] | 3300 ± 300 |  | 
13 | COC(=O)[C@@H]1C[C@H](OC(=O)c2cccc(OC)c2)C(=O)[C@H]2[C@@]1(C)CC[C@H]1C(=O)O[C@H](c3ccoc3)C[C@]21C [Series 1 Entry 15] | 330 ± 20 |  | 
14 | COC(=O)[C@@H]1C[C@H](OC(=O)c2ccccn2)C(=O)[C@H]2[C@@]1(C)CC[C@H]1C(=O)O[C@H](c3ccoc3)C[C@]21C [Series 1 Entry 17, (2S,4aR,6aR,7R,9S,10aS,10bR)-2-(furan-3-yl)-7-(methoxycarbonyl)-6a,10b-dimethyl-4,10-dioxododecahydro-2H-benzo[f]isochromen-9-yl picolinate] | > 50000 |  | 
15 | COC(=O)[C@@H]1C[C@H](OC(=O)c2cccnc2)C(=O)[C@H]2[C@@]1(C)CC[C@H]1C(=O)O[C@H](c3ccoc3)C[C@]21C [Series 1 Entry 18] | 240 ± 20 |  | 
16 | COC(=O)[C@@H]1C[C@H](OC(=O)c2ccncc2)C(=O)[C@H]2[C@@]1(C)CC[C@H]1C(=O)O[C@H](c3ccoc3)C[C@]21C [Series 1 Entry 19, (2S,4aR,6aR,7R,9S,10aS,10bR)-2-(furan-3-yl)-7-(methoxycarbonyl)-6a,10b-dimethyl-4,10-dioxododecahydro-2H-benzo[f]isochromen-9-yl isonicotinate] | 340 ± 10 |  | 
17 | COC(=O)[C@@H]1C[C@H](OC(=O)c2cccs2)C(=O)[C@H]2[C@@]1(C)CC[C@H]1C(=O)O[C@H](c3ccoc3)C[C@]21C [Series 1 Entry 20] | 330 ± 70 |  | 
18 | COC(=O)[C@@H]1C=C(OC(=O)c2ccccc2[N+](=O)[O-])C(=O)[C@H]2[C@@]1(C)CC[C@H]1C(=O)O[C@H](c3ccoc3)C[C@]21C [Series 2 Entry 2, (2S,4aR,6aR,7R,10aR,10bR)-Methyl 2-(furan-3-yl)-6a,10b-dimethyl-9-((2-nitrobenzoyl)oxy)-4,10-dioxo-2,4,4a,5,6,6a,7,10,10a-decahydro-1H-benzo[f]isochromene-7-carboxylate] |  | 1900 ± 600 | 
19 | COC(=O)[C@@H]1C=C(OC(=O)c2cccc([N+](=O)[O-])c2)C(=O)[C@H]2[C@@]1(C)CC[C@H]1C(=O)O[C@H](c3ccoc3)C[C@]21C [Series 2 Entry 3, (2S,4aR,6aR,7R,10aR,10bR)-Methyl 2-(furan-3-yl)-6a,10b-dimethyl-9-((3-nitrobenzoyl)oxy)-4,10-dioxo-2,4,4a,5,6,6a,7,10,10a,10b-decahydro-1H-benzo[f]isochromene-7-carboxylate] |  | 320 ± 10 | 
20 | COC(=O)[C@@H]1C=C(OC(=O)c2ccc([N+](=O)[O-])cc2)C(=O)[C@H]2[C@@]1(C)CC[C@H]1C(=O)O[C@H](c3ccoc3)C[C@]21C [Series 2 Entry 4, (2S,4aR,6aR,7R,10aR,10bR)-Methyl 2-(furan-3-yl)-6a,10b-dimethyl-9-((4-nitrobenzoyl)oxy)-4,10-dioxo-2,4,4a,5,6,6a,7,10,10a,10b-decahydro-1H-benzo[f]isochromene-7-carboxylate] |  |  | EC50 (read-out: Series 2 EC50): 31 ± 2 nM
21 | COC(=O)[C@@H]1C=C(OC(=O)c2ccccc2Cl)C(=O)[C@H]2[C@@]1(C)CC[C@H]1C(=O)O[C@H](c3ccoc3)C[C@]21C [Series 2 Entry 5, (2S,4aR,6aR,7R,10aR,10bR)-Methyl 9-((2-chlorobenzoyl)oxy)-2-(furan-3-yl)-6a,10b-dimethyl-4,10-dioxo-2,4,4a,5,6,6a,7,10,10a,10b-decahydro-1H-benzo[f]isochromene-7-carboxylate] |  | 290 ± 20 | 
22 | COC(=O)[C@@H]1C=C(OC(=O)c2cccc(Cl)c2)C(=O)[C@H]2[C@@]1(C)CC[C@H]1C(=O)O[C@H](c3ccoc3)C[C@]21C [Series 2 Entry 6, (2S,4aR,6aR,7R,10aR,10bR)-Methyl 9-((3-chlorobenzoyl)oxy)-2-(furan-3-yl)-6a,10b-dimethyl-4,10-dioxo-2,4,4a,5,6,6a,7,10,10a,10b-decahydro-1H-benzo[f]isochromene-7-carboxylate] |  | 250 ± 30 | 
23 | COC(=O)[C@@H]1C=C(OC(=O)c2ccc(Cl)cc2)C(=O)[C@H]2[C@@]1(C)CC[C@H]1C(=O)O[C@H](c3ccoc3)C[C@]21C [Series 2 Entry 7, (2S,4aR,6aR,7R,10aR,10bR)-Methyl 9-((4-chlorobenzoyl)oxy)-2-(furan-3-yl)-6a,10b-dimethyl-4,10-dioxo-2,4,4a,5,6,6a,7,10,10a,10b-decahydro-1H-benzo[f]isochromene-7-carboxylate] |  | 29 ± 8 | 
24 | COC(=O)[C@@H]1C=C(OC(=O)c2ccccc2F)C(=O)[C@H]2[C@@]1(C)CC[C@H]1C(=O)O[C@H](c3ccoc3)C[C@]21C [Series 2 Entry 8] |  | 4.7 ± 0.4 | 
25 | COC(=O)[C@@H]1C=C(OC(=O)c2cccc(F)c2)C(=O)[C@H]2[C@@]1(C)CC[C@H]1C(=O)O[C@H](c3ccoc3)C[C@]21C [Series 2 Entry 9, (2S,4aR,6aR,7R,10aR,10bR)-Methyl 9-((3-fluorobenzoyl)oxy)-2-(furan-3-yl)-6a,10b-dimethyl-4,10-dioxo-2,4,4a,5,6,6a,7,10,10a,10b-decahydro-1H-benzo[f]isochromene-7-carboxylate] |  | 15 ± 2 | 
26 | COC(=O)[C@@H]1C=C(OC(=O)c2ccc(F)cc2)C(=O)[C@H]2[C@@]1(C)CC[C@H]1C(=O)O[C@H](c3ccoc3)C[C@]21C [Series 2 Entry 10, (2S,4aR,6aR,7R,10aR,10bR)-Methyl 9-((4-fluorobenzoyl)oxy)-2-(furan-3-yl)-6a,10b-dimethyl-4,10-dioxo-2,4,4a,5,6,6a,7,10,10a,10b-decahydro-1H-benzo[f]isochromene-7-carboxylate] |  | 5 ± 1 | 
